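A five-concentration, 48-hour dose response in 96-well plates underlies each endpoint, interpolated linearly between surrounding concentrations. GI50 marks 50% less growth.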 Activity calls are given as the source filed them. No stated cut-off is given here; in the data, active = GI50 up to about 1.1 µM and inactive = higher. Residues, ends and D or L forms follow the SMILES beside them. *: point of attachment. Boc = CC(C)(C)OC(=O)*
Key:
Experiment in all cases: inhibition of tumour cell growth, NCI panel, 48 h
786-0 = tested on: 786-0
COLO 205 = tested on: COLO 205
EKVX = tested on: EKVX
HCC 2998 = tested on: HCC 2998
HCT-15 = tested on: HCT-15
HL-60 = tested on: HL-60
HT-29 = tested on: HT-29
K562 = tested on: K562
NCI-H23 = tested on: NCI-H23
SF-268 = tested on: SF-268
SF-295 = tested on: SF-295
SF-539 = tested on: SF-539
SK-MEL-28 = tested on: SK-MEL-28
SK-MEL-5 = tested on: SK-MEL-5
SR = tested on: SR
TK-10 = tested on: TK-10
U-251 = tested on: U-251
UO-31 = tested on: UO-31
M14 = tested on: M14
NCI-H226 = tested on: NCI-H226

Structure (SMILES)	GI50 (786-0)	GI50 (COLO 205)	GI50 (EKVX)	GI50 (HCC 2998)	GI50 (HCT-15) [µM]	GI50 (HL-60)	GI50 (HT-29)	GI50 (K562)	GI50 (NCI-H23)	GI50 (SF-268)	GI50 (SF-295)	GI50 (SF-539)	GI50 (SK-MEL-28)	GI50 (SK-MEL-5)	GI50 (SR)	GI50 (TK-10)	GI50 (U-251)	GI50 (UO-31)	GI50 (M14)	GI50 (NCI-H226)
O=c1sc(Nc2ccc3ccccc3c2Cl)nc2ccccc12	> 100 µM (inactive)	> 100 µM (inactive)	> 100 µM (inactive)	> 100 µM (inactive)	> 100	26.5 µM (inactive)	> 100 µM (inactive)	> 100 µM (inactive)	> 100 µM (inactive)	> 100 µM (inactive)	> 100 µM (inactive)	73.8 µM (inactive)	> 100 µM (inactive)	> 100 µM (inactive)	7.08 µM (inactive)	> 100 µM (inactive)	> 100 µM (inactive)	> 100 µM (inactive)	–	–
O=C1O/C(=C\c2ccc(O)cc2)C(c2ccc(O)c(Cl)c2)=C1Br	13 µM (inactive)	19.3 µM (inactive)	14.1 µM (inactive)	11.3 µM (inactive)	12.9	13.9 µM (inactive)	16.4 µM (inactive)	2.25 µM (inactive)	16.1 µM (inactive)	13.7 µM (inactive)	14.5 µM (inactive)	12 µM (inactive)	13.4 µM (inactive)	12.7 µM (inactive)	3.94 µM (inactive)	18.9 µM (inactive)	18 µM (inactive)	14.6 µM (inactive)	13.6 µM (inactive)	–
C/C(=N/NC(=O)c1ccccc1S(N)(=O)=O)C(CN1CCCCC1)C(C1=C(O)C2C=CC=CC2OC1=O)c1ccccc1 (centres undefined)	> 100 µM (inactive)	18.6 µM (inactive)	> 100 µM (inactive)	–	49.9	23.4 µM (inactive)	83.9 µM (inactive)	43.6 µM (inactive)	> 100 µM (inactive)	58.5 µM (inactive)	57.8 µM (inactive)	> 100 µM (inactive)	–	56.9 µM (inactive)	23.7 µM (inactive)	> 100 µM (inactive)	89.1 µM (inactive)	74.5 µM (inactive)	78.3 µM (inactive)	90.2 µM (inactive)
CCCCCCCCCCCCCCCCP(=O)([O-])OCC[N+](C)(C)C	7.46 µM (inactive)	6.58 µM (inactive)	20.1 µM (inactive)	6.19 µM (inactive)	6.56	–	12.7 µM (inactive)	19 µM (inactive)	20.2 µM (inactive)	17.6 µM (inactive)	12.9 µM (inactive)	24.5 µM (inactive)	18.5 µM (inactive)	16 µM (inactive)	10.4 µM (inactive)	1.5 µM (inactive)	16.7 µM (inactive)	14.9 µM (inactive)	15.3 µM (inactive)	23 µM (inactive)
N/C(=N\c1c([N+](=O)[O-])cnc2ccccc12)N1CCOCC1	> 100 µM (inactive)	> 100 µM (inactive)	> 100 µM (inactive)	–	> 100	> 100 µM (inactive)	> 100 µM (inactive)	> 100 µM (inactive)	> 100 µM (inactive)	> 100 µM (inactive)	86.9 µM (inactive)	> 100 µM (inactive)	> 100 µM (inactive)	> 100 µM (inactive)	> 100 µM (inactive)	> 100 µM (inactive)	> 100 µM (inactive)	> 100 µM (inactive)	> 100 µM (inactive)	> 100 µM (inactive)
CC(NC(=O)C(NC(=O)OC(C)(C)C)C(C)C)C(=O)N1CCCC1C(=O)NCC(=O)NC(C(=O)NCC(=O)O)C(C)C (centres undefined) (Boc-VAPGVG-OH; configuration not given here)	> 100 µM (inactive)	> 100 µM (inactive)	> 100 µM (inactive)	77.3 µM (inactive)	> 100	> 100 µM (inactive)	> 100 µM (inactive)	> 100 µM (inactive)	> 100 µM (inactive)	> 100 µM (inactive)	> 100 µM (inactive)	> 100 µM (inactive)	> 100 µM (inactive)	–	> 100 µM (inactive)	> 100 µM (inactive)	> 100 µM (inactive)	> 100 µM (inactive)	> 100 µM (inactive)	–
COc1ccc(/C=C2/SC(c3ccccc3)N(NC(=O)CCCCCCCCC(=O)NN3C(=O)/C(=C\c4ccc(OC)c(OC)c4)SC3c3ccccc3)C2=O)cc1OC (centres undefined)	19.6 µM (inactive)	> 100 µM (inactive)	17.1 µM (inactive)	> 100 µM (inactive)	55.2	–	71.8 µM (inactive)	6.59 µM (inactive)	38.4 µM (inactive)	69.3 µM (inactive)	24.2 µM (inactive)	24.6 µM (inactive)	48 µM (inactive)	–	15.6 µM (inactive)	> 100 µM (inactive)	57.3 µM (inactive)	58.2 µM (inactive)	> 100 µM (inactive)	> 100 µM (inactive)
O=C(O)CCCCCCC[C@H]1S[C@H]1CCCCCCO	> 100 µM (inactive)	> 100 µM (inactive)	> 100 µM (inactive)	> 100 µM (inactive)	> 100	> 100 µM (inactive)	> 100 µM (inactive)	> 100 µM (inactive)	> 100 µM (inactive)	> 100 µM (inactive)	> 100 µM (inactive)	> 100 µM (inactive)	> 100 µM (inactive)	> 100 µM (inactive)	> 100 µM (inactive)	> 100 µM (inactive)	> 100 µM (inactive)	> 100 µM (inactive)	> 100 µM (inactive)	–
S=C(N/N=C/c1ccccn1)N1CCCCCC1	< 0.01 µM (active)	< 0.01 µM (active)	< 0.0294 µM (active)	0.444 µM (active)	< 0.01	< 0.01 µM (active)	< 0.01 µM (active)	< 0.01 µM (active)	< 0.01 µM (active)	< 0.0121 µM (active)	0.124 µM (active)	< 0.0288 µM (active)	0.215 µM (active)	< 0.0141 µM (active)	< 0.01 µM (active)	0.0101 µM (active)	< 0.01 µM (active)	0.0288 µM (active)	< 0.01 µM (active)	–
CCN(CC)CCNC(=O)c1cc2cc(NC(=O)c3cc4cc(NC(=O)c5cc6cc(N)ccc6[nH]5)ccc4[nH]3)ccc2[nH]1	> 100 µM (inactive)	> 100 µM (inactive)	> 100 µM (inactive)	> 100 µM (inactive)	> 100	–	> 100 µM (inactive)	> 100 µM (inactive)	> 100 µM (inactive)	> 100 µM (inactive)	> 100 µM (inactive)	–	> 100 µM (inactive)	> 100 µM (inactive)	> 100 µM (inactive)	> 100 µM (inactive)	> 100 µM (inactive)	> 100 µM (inactive)	> 100 µM (inactive)	> 100 µM (inactive)
COc1ccc(-c2nc(-c3cnccn3)n(Cc3ccccc3)n2)cc1	> 100 µM (inactive)	> 100 µM (inactive)	–	> 100 µM (inactive)	> 100	> 100 µM (inactive)	> 100 µM (inactive)	> 100 µM (inactive)	> 100 µM (inactive)	> 100 µM (inactive)	> 100 µM (inactive)	> 100 µM (inactive)	> 100 µM (inactive)	> 100 µM (inactive)	> 100 µM (inactive)	–	> 100 µM (inactive)	> 100 µM (inactive)	> 100 µM (inactive)	–
COC(CC1(/C=C/O[Si](C(C)C)(C(C)C)C(C)C)C(=O)N(COCC[Si](C)(C)C)c2ccccc21)OC (centres undefined)	31 µM (inactive)	66.8 µM (inactive)	–	27.9 µM (inactive)	36.6	–	96.4 µM (inactive)	> 100 µM (inactive)	25.1 µM (inactive)	17 µM (inactive)	7.96 µM (inactive)	15.1 µM (inactive)	16.6 µM (inactive)	23.1 µM (inactive)	21 µM (inactive)	74.8 µM (inactive)	31.8 µM (inactive)	76 µM (inactive)	27.2 µM (inactive)	> 100 µM (inactive)
O=c1cnnc2sc(=S)[nH]n12	22.5 µM (inactive)	> 100 µM (inactive)	> 100 µM (inactive)	44.5 µM (inactive)	19.6	16.6 µM (inactive)	39.8 µM (inactive)	15.6 µM (inactive)	–	5.04 µM (inactive)	2.97 µM (inactive)	> 100 µM (inactive)	65.5 µM (inactive)	20.1 µM (inactive)	22.4 µM (inactive)	–	22.1 µM (inactive)	22.2 µM (inactive)	84.1 µM (inactive)	–
COc1ccc(C(=O)/C=C/S/C(=N/C#N)SC)cc1	19 µM (inactive)	19.7 µM (inactive)	35.3 µM (inactive)	–	13.8	16.6 µM (inactive)	19.8 µM (inactive)	10.7 µM (inactive)	16.9 µM (inactive)	25.8 µM (inactive)	28 µM (inactive)	20 µM (inactive)	30.2 µM (inactive)	21.8 µM (inactive)	3.95 µM (inactive)	20.8 µM (inactive)	16.9 µM (inactive)	17.9 µM (inactive)	18.3 µM (inactive)	16.5 µM (inactive)
Cc1c(N2C(=O)/C(=C/c3ccc(Cl)cc3)N=C2c2ccccc2)c(=O)n(-c2ccccc2)n1C	46.8 µM (inactive)	16 µM (inactive)	19.7 µM (inactive)	–	3.2	27.4 µM (inactive)	26.6 µM (inactive)	36.6 µM (inactive)	26.2 µM (inactive)	30.8 µM (inactive)	35.7 µM (inactive)	28.5 µM (inactive)	–	17.8 µM (inactive)	30.5 µM (inactive)	20.5 µM (inactive)	28.2 µM (inactive)	26.2 µM (inactive)	36.8 µM (inactive)	30.7 µM (inactive)
